Patent publication US12435087B2, “Modulators of DCN-1 and methods of use thereof” (Cellarity, Inc., priority 2023, dated 2025)
Where two headings read alike, the source gives them in different places.

Target: DCN1 (DCUND1) protein PONY domain (Homo sapiens (Human), UniProt Q96GG9)
Test: TR-FRET assay (binding to DCN-1, displacement of FAM-labeled probe)
Excerpt: (§1) The TR-FRET assay was designed following the Scott et al. protocol (Scott et al., Nat Chem Biol. 2017 August; 13(8): 850-857. doi:10.1038/nchembio.2386). The recombinant form of the DCN1 (DCUND1) protein PONY domain was produced using an E. coli expression system at Viva Biotech (China). The DCN1 protein was biotinylated (EZ sulfo-NHS-LC-biotin; Thermofisher) for labeling with streptavidin terbium (Tb) cryptate in the reaction. The probe was changed to a non-covalent DCN1 inhibitor labeled with carboxyfluorescein (FAM; Zhou et al., Nat Commun. 2017; 8: 1150. doi: 10.1038/s41467-017-01243-7). Buffer conditions were modified to enhance protein stability by exchanging Tween20 for TritonX and increasing NaCl to 200 mM. The compounds were screened against 5 nM DCN1 and 20 nM FAM-probe or 0.31 nM DCN1 and 900 nM total probe (100 nM FAM-labeled plus 800 nM unlabeled). The TR-FRET ratio between Tb-DCN1 and the FAM-labeled probe was measured in a 384-well opti-plate (Perkin Elmer) using a plate reader (BMG) at 1, 5, and 24 hrs after treatment with compound (final DMSO concentration of 0.1%). The ratio was normalized to the high (DCN1 and FAM-probe) and low (DCN1 and no probe) controls for a readout of % activity (=100*(x−low)/(high−low).
A TR-FRET assay was performed to evaluate the ability of the compounds to bind the DCN-1 protein.
as §1, with “850-857. Doi: 10.1038/nchembio.2386).” for “850-857. doi:10.1038/nchembio.2386).”, “the DCNI” for “the DCN1”, “1150. Doi:” for “1150. doi:”, “0.1%).” for “0.1%). The ratio was normalized to the high (DCN1 and FAM-probe) and low (DCN1 and no probe) controls for a readout of % activity (=100*(x−low)/(high−low).”

[1] = 24 hr after treatment with compound, read-out: TR FRET IC50 24 hr
[2] = read-out: TR FRET IC50 1 hr, 1 hr after treatment with compound
[3] = TR FRET IC50 1 hr (nM), 1 hr after treatment with compound

DCN1 (DCUND1) protein PONY domain, sequence (Q96GG9 60-248): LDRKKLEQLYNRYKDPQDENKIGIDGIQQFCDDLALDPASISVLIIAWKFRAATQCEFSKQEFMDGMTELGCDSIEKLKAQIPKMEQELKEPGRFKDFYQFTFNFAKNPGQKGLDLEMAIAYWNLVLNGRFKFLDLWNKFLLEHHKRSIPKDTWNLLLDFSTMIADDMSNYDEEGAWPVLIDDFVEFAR

SMILES | IC50 [1] [nM] | IC50 [2] [nM] | IC50 [3] [nM]
CCN1C(=O)C(NC(=O)c2cccc(C(F)(F)F)c2)[C@@H](c2cccc(NC(=O)C(Cl)Cl)c2)c2c(C)nn(-c3ccccc3)c21 (stereo in doubt) [Compound I-42, N-((4S,5R)-4-(3-(2,2-dichloroacetamido)phenyl)-7-ethyl-3-methyl-6-oxo-1-phenyl-4,5,6,7-tetrahydro-1H-pyrazolo[3,4-b]pyridin-5-yl)-3-(trifluoromethyl)benzamide] | 1000 to 3000 | > 3000 | –
CCN1C(=O)[C@@H](NC(=O)c2nccc(C(F)(F)F)n2)[C@H](c2cccc(NC(=O)/C=C/C(=O)N3CCCC3)c2)c2c(C)nn(-c3ccccc3)c21 (racemic) [Compound I-262] | 1000 to 3000 | – | 1000 to 3000
C=C(CN1CC2CC1CO2)C(=O)NCc1cccc([C@@H]2c3c(C)nn(-c4ccccc4)c3N(CC)C(=O)[C@H]2NC(=O)c2cccc(C(F)(F)F)c2)c1 (stereo partly shown) [Compound I-236] | ≤ 200 | ≤ 200 | –
C=C(CN1CCC12COC2)C(=O)NCc1cccc([C@@H]2c3cnn(-c4ccccc4)c3N(CC)C(=O)[C@H]2NC(=O)c2nccc(C(F)(F)F)n2)c1 [Compound I-246] | ≤ 200 | ≤ 200 | –
C=C(CN1CC(F)(F)C1)C(=O)NCc1cccc([C@H]2c3cnn(-c4ccccc4)c3N(CC)C(=O)[C@@H]2NC(=O)c2cccc(C(F)(F)F)c2)c1 [Compound I-96] | 1000 to 3000 | – | 1000 to 3000
CCN1C(=O)[C@@H](NC(=O)c2cccc(C(F)(F)F)c2)[C@H](c2cccc(CNC(=O)C3=CCN(C)C3)c2)c2cnn(-c3ccccc3)c21 [Compound I-54] | ≤ 200 | – | 1000 to 3000
CCN1C(=O)[C@H](NC(=O)c2cccc(C(F)(F)F)c2)[C@@H](c2cccc(CNC(=O)C3=CCCN(C)C3)c2)c2cnn(-c3ccccc3)c21 [Compound I-106] | 1000 to 3000 | – | 1000 to 3000
CCN1C(=O)[C@@H](NC(=O)c2nccc(C(F)(F)F)n2)[C@H](c2cccc(NC(=O)C3=CCN(C)C3)c2)c2c(C)nn(-c3ccccc3)c21 [Compound I-37] | ≤ 200 | ≤ 200 | –
CCN1C(=O)[C@H](NC(=O)c2cccc(C(F)(F)F)c2)[C@@H](c2cccc(N(C)C(=O)C3=CCC3)c2)c2cnn(-c3ccccc3)c21 [Compound I-91] | 1000 to 3000 | – | 1000 to 3000
CCN1C(=O)[C@@H](NC(=O)c2cccc(C(F)(F)F)c2)[C@H](c2ccccc2CNC(=O)/C=C/CN(C)C)c2cnn(-c3ccccc3)c21 (racemic) [Compound I-120] | 1000 to 3000 | – | 1000 to 3000
C=C(CC(=O)NCc1cccc([C@H]2c3cnn(-c4ccccc4)c3N(CC)C(=O)[C@@H]2NC(=O)c2cccc(C(F)(F)F)c2)c1)C(=O)OC [Compound I-109] | 1000 to 3000 | – | 1000 to 3000
CCN1C(=O)[C@@H](NC(=O)c2cccc(C(F)(F)F)c2)[C@H](c2ccccc2CNC(=O)C(C)Cl)c2cnn(-c3ccccc3)c21 (mixture of isomers) [Compound I-114] | 1000 to 3000 | – | 1000 to 3000
C=C(CC(=O)OC)C(=O)NCc1cccc([C@@H]2c3cnn(-c4ccccc4)c3N(CC)C(=O)[C@H]2NC(=O)c2cccc(C(F)(F)F)c2)c1 [Compound I-50] | ≤ 200 | – | 1000 to 3000
CCN1C(=O)[C@@H](NC(=O)c2cccc(C(F)(F)F)c2)[C@H](c2cncc(NC(=O)C3=CCC3)c2)c2cnn(-c3ccccc3)c21 (racemic) [Compound I-36] | 1000 to 3000 | 1000 to 3000 | –
C=C(CN1CC(C)(O)C1)C(=O)NCc1cccc([C@@H]2c3cnn(-c4ccccc4)c3N(CC)C(=O)[C@H]2NC(=O)c2cccc(C(F)(F)F)c2)c1 [Compound I-361] | ≤ 200 | ≤ 200 | –
C=C(C(=O)NCc1cccc([C@@H]2c3cnn(-c4ccccc4)c3N(CC)C(=O)[C@H]2NC(=O)c2nccc(C(F)(F)F)n2)c1)C(C)N1CCC12COC2 (stereo partly shown) [Compound I-256] | ≤ 200 | – | 200 to 1000

SMILES | IC50 [1] [nM] | IC50 [2] [nM] | IC50 [3] [nM]
C=C(CN1CC2CC1CO2)C(=O)NCc1cccc([C@H]2c3c(C)nn(-c4ccccc4)c3N(CC)C(=O)[C@@H]2NC(=O)c2cccc(C(F)(F)F)c2)c1 (stereo partly shown) [Compound I-294] | ≤ 200 | – | 200 to 1000
C/C=C/S(=O)(=O)Nc1cccc([C@H]2c3c(C)nn(-c4ccccc4)c3N(CC)C(=O)[C@@H]2NC(=O)c2cccc(C(F)(F)F)c2)c1 (racemic) [Compound I-131] | ≤ 200 | – | 200 to 1000
CCN1C(=O)[C@@H](NC(=O)c2cccc(C(F)(F)F)c2)[C@H](c2cccc(CNC(=O)/C(C)=C/C(=O)OC)c2)c2cnn(-c3ccccc3)c21 [Compound I-95] | 1000 to 3000 | – | 1000 to 3000
C=C(CN1CC2CCC1CO2)C(=O)NCc1cccc([C@@H]2c3cnn(-c4ccccc4)c3N(CC)C(=O)[C@H]2NC(=O)c2cccc(C(F)(F)F)c2)c1 (stereo partly shown) [Compound I-293] | ≤ 200 | ≤ 200 | –
C/C=C(\CN(C)C1COC1)C(=O)NCc1cccc([C@@H]2c3cnn(-c4ccccc4)c3N(CC)C(=O)[C@H]2NC(=O)c2csc(C(F)(F)F)n2)c1 [Compound I-365] | ≤ 200 | – | 200 to 1000
CCN1C(=O)[C@@H](NC(=O)c2cccc(C(F)(F)F)c2)[C@H](c2cccc(CNC/C=C/C(=O)N(C)C)c2)c2cnn(-c3ccccc3)c21 [Compound I-372] | 200 to 1000 | – | 1000 to 3000
C/C=C(\CN1CCC1)C(=O)Nc1cccc([C@@H]2c3cnn(-c4ccccc4)c3N(CC)C(=O)[C@H]2NC(=O)c2nccc(C(F)(F)F)n2)c1 [Compound I-367] | ≤ 200 | – | 1000 to 3000
C=C(CN1C2CCC1COC2)C(=O)NCc1cccc([C@@H]2c3cnn(-c4ccccc4)c3N(CC)C(=O)[C@H]2NC(=O)c2cccc(C(F)(F)F)c2)c1 [Compound I-289] | ≤ 200 | ≤ 200 | –
CCN1C(=O)[C@@H](NC(=O)c2cccc(C(F)(F)F)c2)[C@@H](c2cc(F)cc(NC(=O)/C=C/CN(C)C)c2)c2cnn(-c3ccccc3)c21 (racemic) [Compound I-85] | 1000 to 3000 | – | 1000 to 3000
C=C(CN1CCN(C2COC2)CC1)C(=O)NCc1cccc([C@H]2c3cnn(-c4ccccc4)c3N(CC)C(=O)[C@@H]2NC(=O)c2cccc(C(F)(F)F)c2)c1 [Compound I-134] | 200 to 1000 | – | 1000 to 3000
C=C(CN1CC2(COC2)C1)C(=O)NCc1cccc([C@@H]2c3cnn(-c4ccccc4)c3N(CC)C(=O)[C@H]2NC(=O)c2nccc(C(F)(F)F)n2)c1 [Compound I-161] | ≤ 200 | ≤ 200 | –
CCN1C(=O)[C@H](NC(=O)c2cccc(C(F)(F)F)c2)[C@@H](c2cccc(NC(=O)C#CCN3CCOCC3)c2)c2c(C)nn(-c3ccccc3)c21 (racemic) [Compound I-35] | 1000 to 3000 | – | 1000 to 3000
CCN1C(=O)[C@@H](NC(=O)c2cccc(C(F)(F)F)c2)[C@H](c2ccccc2CNC(=O)/C=C/C(=O)OC)c2cnn(-c3ccccc3)c21 (racemic) [Compound I-67] | 1000 to 3000 | – | 1000 to 3000
CCN1C(=O)[C@H](NC(=O)c2cccc(C(F)(F)F)c2)[C@@H](c2cccc(NC(=O)/C=C/CN(C)C)c2)c2c(CN(C)C)nn(-c3ccccc3)c21 (racemic) [Compound I-212, ˜{N}—[˜{rac}-(4˜{S},5˜{R})-3-[(dimethylamino)methyl]-7-ethyl-6-oxo-1-phenyl-4-[3-[[˜{rac}-(˜{E})-4-(dimethylamino)but-2-enoyl]amino]phenyl]-4,5-dihydropyrazolo[3,4-b]pyridin-5-yl]-3-(trifluoromethyl)benzamide] | ≤ 200 | – | 200 to 1000
C=C(CN(C)C1COC1)C(=O)NCc1cccc([C@H]2c3c(C)nn(-c4ccccc4)c3N(CC)C(=O)[C@@H]2NC(=O)c2cccc(C(F)(F)F)c2)c1 [Compound I-349] | 200 to 1000 | – | 1000 to 3000
CCN1C(=O)[C@@H](NC(=O)c2nccc(C(F)(F)F)n2)[C@H](c2cccc(NC(=O)/C=C/C(=O)OC(C)(C)C)c2)c2c(C)nn(-c3ccccc3)c21 (racemic) [Compound I-359, rac-tert-butyl (E)-4-((3-((4R,5S)-7-ethyl-3-methyl-6-oxo-1-phenyl-5-(4-(trifluoromethyl)pyrimidine-2-carboxamido)-4,5,6,7-tetrahydro-1H-pyrazolo[3,4-b]pyridin-4-yl)phenyl)amino)-4-oxobut-2-enoate] | ≤ 200 | – | 1000 to 3000
